Laboratory results as given in patent US9463251B2, “Anti-ETBR antibodies and immunoconjugates” (Genentech, Inc., priority 2012, dated 2016).
Starred links: 1 amine or outer side, 2 acyl side, 3 side chain; linkers in the order of their positions; H or OH if unused. Non-standard residues stand in square brackets, D forms with d. Residues, ends and D or L forms follow the SMILES beside them. *: point of attachment. Dolaproine = CO[C@@H]([C@@H]1CCCN1)[C@@H](C)C(=O)O; Hexanoyl(6-maleimido) = O=C1C=CC(=O)N1CCCCCC(=O)*; Dil = CC[C@H](C)[C@H](NC)[C@@H](CC(=O)O)OC; PABC = O=C(OCc1ccc(N[*:1])cc1)[*:2]; X1 = C[C@@H](N*)[C@@H](O)c1ccccc1; Cit = NC(=O)NCCC[C@H](N)C(=O)O; NMeV = CN[C@H](C(=O)O)C(C)C

What was measured:
Format in all cases: cell-based
Conditions in all cases: five days, read-out: EC50 (free linker-drug, without antibody)
[1] = system: Parental UACC-257X2.2 cells; test: In vitro cell proliferation (CellTiter-Glo), parental cells
Method: (§1) In vitro cell proliferation of the cell lines in the presence of the immunoconjugates was assessed. Cells were plated at 1,500 cells per well in 50 μL of normal growth medium in 96-well clear-bottom plates. Twenty-four hours later, an additional 50 μL of culture medium with serial dilutions of immunoconjugates (ch5E9-vc-MMAE or control anti-gD-vc-MMAE) were added to triplicate wells. Five days later, cell survival was determined using CellTiter-Glo Luminescent Cell Viability Reagent (G7572, Promega Corporation, Madison, Wis.) using an EnVision 2101 Mutilabel Reader (Perkin-Elmer, Waltham, Mass.).

[2] = system: In vivo-derived resistant UACC-257X2.2 cells; test: In vitro cell proliferation (CellTiter-Glo), in vivo-derived resistant cells
Method: Tumor #359 was harvested and the cells were dissociated for growth in vitro (referred to herein as in vivo-derived resistant UACC-257X2.2 cells).
(§2) In vivo- and in vitro-derived resistant UACC-257X2.2 cells were then assayed for sensitivity to increasing concentrations of anti-ETBR-vc-MMAE.
as §1

[3] = system: In vitro-derived resistant UACC-257X2.2 cells; test: In vitro cell proliferation (CellTiter-Glo), in vitro-derived resistant cells
Method: For resistance developed in vitro, UACC-257X2.2 cells were adapted to increasing concentrations of anti-ETBR-vc-MMAE in culture dishes over the course of two months.
as §2, §1

Work on `CC[C@H](C)[C@@H]([C@@H](CC(=O)N1CCC[C@H]1[C@H](OC)[C@@H](C)C(=O)N[C@H](C)[C@@H](O)c1ccccc1)OC)N(C)C(=O)[C@@H](NC(=O)[C@H](C(C)C)N(C)C(=O)OCc1ccc(NC(=O)[C@H](CCCNC(N)=O)NC(=O)[C@@H](NC(=O)CCCCCN2C(=O)C=CC2=O)C(C)C)cc1)C(C)C` [MC-vc-PAB-MMAE] ({Hexanoyl(6-maleimido)}-V[Cit][PABC][NMeV]V[Dil][Dolaproine]-X1) yielded an EC50 [1] of 0.28 nM, an EC50 [2] of 0.77 nM and an EC50 [3] of 3.5 nM.
